Assay results as given in patent US20100041089A1, “IMPROVED METHOD FOR DETECTING CHEMICAL […]” (priority 2006, published 2010).

Test system: yeast genes (expressed mRNA)
Test: DNA chip measurement of expressed mRNA of yeast genes after culture with a toxic chemical substance
Assay type: cell-based, Saccharomyces cerevisiae S288C
Experimental: Yeast (Saccharomyces cerevisiae S288C (a SUC2mal mel gap2 CUP1)) were cultured at 25° C. on YPD medium (yeast extract 1%, polypeptone 2%, glucose 2%). One of toxic chemical substances was added to the cell at logarithmic growth phase, and the cell was further cultured for two hours. Cell was cultured without any chemical substance in the same condition, and was used as a control. Concentrations of the chemical substances were defined to inhibit the growth of the yeast but not lead to death.
After the completion of cultivation, the culture was centrifuged to collect the cells. To the cells, sodium acetate buffer (50 mM sodium acetate, 10 mM EDTA, 1% SDS) was added, and the mixture was shaken at 65° C. for five minutes, followed by returning to room temperature, and obtaining the supernatant, which procedure was repeated two times. To the supernatant, ½ amount of a solution of phenol/chloroform (1:1) was added, and the mixture was centrifuged to give a supernatant, an equal amount of chloroform was added, and the mixture was centrifuged to give a supernatant. To the supernatant, an equal amount of isopropanol containing 0.3 M sodium acetate was added, and the mixture was allowed to stand at room temperature for 30 minutes, after which the mixture was centrifuged to give sediment of the whole RNAs. Seventy % ethanol was added to the sediment, and the mixture was again centrifuged to give sediment, which was then dried and dissolved in water. mRNA was isolated from the whole RNAs as followings. In view of the fact that a poly A chain is attached to the 3′ terminus of mRNA, a polynucleotide having a poly T structure which was immobilized on the surface of latex beads was used to trap the mRNA, and then the mRNA was washed and eluted with spine column (Oligotex-dT30<Super>mRNA Purification Kit, Takara). Reverse transcription of the mRNA was conducted with a reverse transcriptase (Super Script II Reverse Transcriptase; catalogue No. 18064-014, GibcoBRL) using fluorescence-labeled nucleotides to give cDNAs that were introduced with Cy3-dUTP or Cy5-dUTP during the reverse transcription.
The labeled cDNAs were dissolved in TE buffer (10 mM Tris-HCl/1 mM EDTA, pH 8.0), and the solution was dropped on the DNA chip containing the whole genes of yeast (DNA Chip Research Inc. Japan) so that the cDNAs were hybridized on the DNA chip at 65° C. for over 12 hours. The fluoresces intensity of the DNA chip was read with a scanner, and the ratio relative to the fluorescence intensity resulting from the absence of chemical substance was estimated as the following, which is shown in Tables 1 to 9.
In the Tables, “Intensity” indicated in the rightmost column is a value of the level of expressed mRNA of each gene in control cells as divided by the average level of the expressions of the whole genes. A gene of which mRNA level is lower in control, and is higher in cases of addition of chemical substance, is especially useful in the detection of toxic substances.
Here, when a ratio of an amount of mRNA expressed in the presence of the chemical substance to an amount of mRNA expressed in the absence of the chemical substance is two or more, then it is considered significant.

`CCCCC[C@H](O)CC(=O)CCc1ccc(O)c(OC)c1` [(13), Gingerol] was tested, and the “level of expressed mRNA in the presence of chemical substance / level in the absence of chemical substance” value (yeast gene YNL194C, cultured two hours with the chemical substance) was 1.5, the “level of expressed mRNA in the presence of chemical substance / level in the absence of chemical substance” value (yeast gene YNL200C, cultured two hours with the chemical substance) was 1.1 and the “The level of expressed mRNA in the presence of chemical substance/The level of expressed mRNA in the absence of chemical substance” value (yeast gene YNL208W, cultured two hours with substance) was 1.7. For the same compound, the “The level of expressed mRNA in the presence of chemical substance/The level of expressed mRNA in the absence of chemical substance” value (yeast gene YNL234W, cultured two hours with substance) was 2.5, the “The level of expressed mRNA in the presence of chemical substance/The level of expressed mRNA in the absence of chemical substance” value (yeast gene YNL241C, cultured for two hours with substance) was 4.9 and the “level of expressed mRNA in the presence of chemical substance / level in the absence of chemical substance” value (yeast gene YNL253W, cultured two hours with the chemical substance) was 1.1. The “level of expressed mRNA in the presence of chemical substance / level in the absence of chemical substance” value (yeast gene YNL276C, cultured two hours with the chemical substance) was 1.5, the “level of expressed mRNA in the presence of chemical substance / level in the absence of chemical substance” value (yeast gene YNR051C, cultured two hours with the chemical substance) was 2.1 and the “level of expressed mRNA in the presence of chemical substance / level in the absence of chemical substance” value (yeast gene YOL026C, cultured two hours with the chemical substance) was 1.2. The “The level of expressed mRNA in the presence of chemical substance/The level of expressed mRNA in the absence of chemical substance” value (yeast gene YOL030W, cultured two hours with the chemical substance) was 1.7, the “The level of expressed mRNA in the presence of chemical substance/The level of expressed mRNA in the absence of chemical substance” value (yeast gene YOL036W, cultured two hours with substance) was 2.5 and the “The level of expressed mRNA in the presence of chemical substance/The level of expressed mRNA in the absence of chemical substance” value (yeast gene YOL039W) was 0.1. The “The level of expressed mRNA in the presence of chemical substance/The level of expressed mRNA in the absence of chemical substance” value (yeast gene YOL084W, cultured two hours with substance) was 6.4, the “The level of expressed mRNA in the presence of chemical substance/The level of expressed mRNA in the absence of chemical substance” value (yeast gene YOL120C) was 0.1 and the “level of expressed mRNA in the presence of chemical substance / level in the absence of chemical substance” value (yeast gene YOR022C, cultured two hours with the chemical substance) was 1.7. For the same compound, the “level of expressed mRNA in the presence of chemical substance / level in the absence of chemical substance” value (yeast gene YOR087W, cultured two hours with the chemical substance) was 1.2, the “level of expressed mRNA in the presence of chemical substance / level in the absence of chemical substance” value (yeast gene YOR138C, cultured two hours with the chemical substance) was 1.8 and the “The level of expressed mRNA in the presence of chemical substance/The level of expressed mRNA in the absence of chemical substance” value (yeast gene YOR152C, cultured two hours with substance) was 7.4. For the same compound, the “The level of expressed mRNA in the presence of chemical substance/The level of expressed mRNA in the absence of chemical substance” value (yeast gene YOR153W) was 11.8, the “The level of expressed mRNA in the presence of chemical substance/The level of expressed mRNA in the absence of chemical substance” value (yeast gene YOR173W, cultured two hours with substance) was 3.8 and the “The level of expressed mRNA in the presence of chemical substance/The level of expressed mRNA in the absence of chemical substance” value (yeast gene YOR187W, mitochondria-located protein gene, cultured two hours with substance) was 0.7. For the same compound, the “level of expressed mRNA in the presence of chemical substance / level in the absence of chemical substance” value (yeast gene YOR253W, cultured two hours with the chemical substance) was 0.5, the “level of expressed mRNA in the presence of chemical substance / level in the absence of chemical substance” value (yeast gene YOR267C, cultured two hours with the chemical substance) was 1.4 and the “level of expressed mRNA in the presence of chemical substance / level in the absence of chemical substance” value (yeast gene YOR325W, cultured two hours with the chemical substance) was 0.6. For the same compound, the “The level of expressed mRNA in the presence of chemical substance/The level of expressed mRNA in the absence of chemical substance” value (yeast gene YOR382W, cultured two hours with substance) was 1.7, the “The level of expressed mRNA in the presence of chemical substance/The level of expressed mRNA in the absence of chemical substance” value (yeast gene YOR385W, cultured two hours with the substance) was 2.8 and the “level of expressed mRNA in the presence of chemical substance / level in the absence of chemical substance” value (yeast gene YPL005W, cultured two hours with the chemical substance) was 1.2. For the same compound, the “The level of expressed mRNA in the presence of chemical substance/The level of expressed mRNA in the absence of chemical substance” value (yeast gene YPL087W, cultured two hours with substance) was 4.4, the “level of expressed mRNA in the presence of chemical substance / level in the absence of chemical substance” value (yeast gene YPL150W, cultured two hours with the chemical substance) was 2.1 and the “level of expressed mRNA in the presence of chemical substance / level in the absence of chemical substance” value (yeast gene YPL152W, cultured two hours with the chemical substance) was 1.4. For the same compound, the “level of expressed mRNA in the presence of chemical substance / level in the absence of chemical substance” value (yeast gene YPL168W, cultured two hours with the chemical substance) was 1.0, the “level of expressed mRNA in the presence of chemical substance / level in the absence of chemical substance” value (yeast gene YPL180W, cultured two hours with the chemical substance) was 1.5 and the “level of expressed mRNA in the presence of chemical substance / level in the absence of chemical substance” value (yeast gene YPL188W, cultured two hours with the chemical substance) was 0.9. The “level of expressed mRNA in the presence of chemical substance / level in the absence of chemical substance” value (yeast gene YPL221W, cultured two hours with the chemical substance) was 1.0, the “The level of expressed mRNA in the presence of chemical substance/The level of expressed mRNA in the absence of chemical substance” value (yeast gene YPL222W, cultured two hours with substance) was 3.0 and the “level of expressed mRNA in the presence of chemical substance / level in the absence of chemical substance” value (yeast gene YPL225W, cultured two hours with the chemical substance) was 0.8. For the same compound, the “The level of expressed mRNA in the presence of chemical substance/The level of expressed mRNA in the absence of chemical substance” value (yeast gene YPR037C, mitochondria-located protein gene, cultured two hours with substance) was 1.0, the “level of expressed mRNA in the presence of chemical substance / level in the absence of chemical substance” value (yeast gene YPR049C, cultured two hours with the chemical substance) was 1.6 and the “The level of expressed mRNA in the presence of chemical substance/The level of expressed mRNA in the absence of chemical substance” value (yeast gene YPR134W, mitochondria-located protein gene, cultured two hours with substance) was 1.1. The “level of expressed mRNA in the presence of chemical substance / level in the absence of chemical substance” value (yeast gene YPR146C, cultured two hours with the chemical substance) was 1.3, the “level of expressed mRNA in the presence of chemical substance / level in the absence of chemical substance” value (yeast gene YPR148C, cultured two hours with the chemical substance) was 1.2 and the “level of expressed mRNA in the presence of chemical substance / level in the absence of chemical substance” value (yeast gene YPR172W, cultured two hours with the chemical substance) was 1.3.
